From patent US11560395B2, “Azithromycin derivatives containing a phosphonium ion as anticancer agents” (Rising Tide Foundation, priority 2017, dated 2023)

Tested on: MDA-231 cancer cells
Experiment: Inhibition of proliferation assay, cell confluence (IncuCyte live cell imaging)
Type: cell-based
Details: MDA-231 cells, concentration 10 uM; relative confluence normalised to time zero, images every 3 h over 4-5 d
Text: Inhibition of Proliferation Assay Cell Confluence The confluence value is a surrogate for cell proliferation and growth. The value is expressed as a percent confluence, which represents the fraction of culture dish-surface that is occupied by cells. As the number of cells in the dish increases over time due to proliferation, so will their coverage of that surface increase. Expansion of the cell population on the cell culture-dish surface and confluence have mostly a linear relationship until the cells on the plate surface begin to reach saturation or maximum density. Confluence is determined based on image analysis. Image based software can identify objects in the image field base on changes to pixel density in a grey scale image. The software can then assign a mask to those pixels within the object. Objects can be ‘gated’ out based on size and shape. To determine cell confluence, images of cells are first masked as objects. The surface area of the image that is masked is measured and compared to the total surface area of the culture dish surface to obtain a percent confluence. MDA-231 cancer cells were obtained from ATCC. Cells were cultured in Dulbecco's Modified Eagle Medium (DMEM) supplemented with 10% Fetal Bovine Serum (FBS), 2 mM Glutamax, 1 mM Non Essential Amino Acid (NEAA) solution and 1 mM sodium pyruvate. Compounds were dissolved in DMSO at 10 mM and diluted in cellular medium and tested at 10 μM (micromolar). Final DMSO concentrations were <0.1%. Images were acquired with an IncuCyte Live Cell Imaging microscopy (Essen Bioscience) at every 3 h under cell culture conditions with 10× objective over 4-5 d. Cell confluence was calculated from one field of view per well using the IncuCyte in-built algorithm. Relative confluence values were obtained by normalising each value to the time zero value in each sample.

Compound | % Confluence [%]
CC[C@H]1OC(=O)[C@H](C)[C@@H](O[C@H]2C[C@@](C)(OC)[C@@H](O)[C@H](C)O2)[C@H](C)[C@@H](O[C@@H]2O[C@H](C)C[C@H](N(C)C)[C@H]2O)[C@](C)(O)C[C@@H](C)CN(C(=O)CCCCN(C)CC[P+](c2ccccc2)(c2ccccc2)c2ccccc2)[C@H](C)[C@@H](O)[C@]1(C)O.[Br-] [Example 24, [2-({5-[(2R,3S,4R,5R,8R,10R,11R,12S,13S,14R)-11-{[(2S,3R,4S,6R)-4-(dimethylamino)-3-hydroxy-6-methyloxan-2-yl]oxy}-2-ethyl-3,4,10-trihydroxy-13-{[(2R,4R,5S,6S)-5-hydroxy-4-methoxy-4,6-dimethyloxan-2-yl]oxy}-3,5,6,8,10,12,14-hexamethyl-15-oxo-1-oxa-6-azacyclopentadecan-6-yl]-5-oxopentyl}(methyl)amino)ethyl]triphenylphosphonium bromide] | 49.1
CC[C@H]1OC(=O)[C@H](C)[C@@H](O)[C@H](C)[C@@H](O)[C@](C)(O)C[C@@H](C)CN(C(=O)CCCCCCCCCCC[PH](c2ccccc2)(c2ccccc2)c2ccccc2)[C@H](C)[C@@H](O)[C@]1(C)O [Example 13, {12-[(2R,3S,4R,5R,8R,10R,11R,12S,13S,14R)-2-ethyl-3,4,10,11,13-pentahydroxy-3,5,8,10,12,14-hexamethyl-15-oxo-1-oxa-6-azacyclopentadecan-6-yl]-12-oxododecyl}triphenylphosphonium hexafluorophosphate(V)] | 11
CC[C@H]1OC(=O)[C@H](C)[C@@H](O[C@H]2C[C@@](C)(OC)[C@@H](O)[C@H](C)O2)[C@H](C)[C@@H](O[C@@H]2O[C@H](C)C[C@H](N(C)C)[C@H]2O)[C@](C)(O)C[C@@H](C)CN(C(=O)CCCCCCC[P+](c2ccccc2)(c2ccccc2)c2ccccc2)[C@H](C)[C@@H](O)[C@]1(C)O [Example 9, {8-[(2R,3S,4R,5R,8R,10R,11R,12S,13S,14R)-11-{[(2S,3R,4S,6R)-4-(dimethylamino)-3-hydroxy-6-methyloxan-2-yl]oxy}-2-ethyl-3,4,10-trihydroxy-13-{[(2R,4R,5S,6S)-5-hydroxy-4-methoxy-4,6-dimethyloxan-2-yl]oxy}-3,5,8,10,12,14-hexamethyl-15-oxo-1-oxa-6-azacyclopentadecan-6-yl]-8-oxooctyl}triphenylphosphonium hexafluorophosphate(V)] | 105.3
CC[C@H]1OC(=O)[C@H](C)[C@@H](O[C@H]2C[C@@](C)(OC)[C@@H](O)[C@H](C)O2)[C@H](C)[C@@H](O[C@@H]2O[C@H](C)C[C@H](N(C)C)[C@H]2O)[C@](C)(O)C[C@@H](C)CN(CCCCCCCCC[PH](c2ccccc2)(c2ccccc2)c2ccccc2)[C@H](C)[C@@H](O)[C@]1(C)O [Example 15, {9-[(2R,3S,4R,5R,8R,10R,11R,12S,13S,14R)-11-{[(2S,3R,4S,6R)-4-(dimethylamino)-3-hydroxy-6-methyloxan-2-yl]oxy}-2-ethyl-3,4,10-trihydroxy-13-{[(2R,4R,5S,6S)-5-hydroxy-4-methoxy-4,6-dimethyloxan-2-yl]oxy}-3,5,8,10,12,14-hexamethyl-15-oxo-1-oxa-6-azacyclopentadecan-6-yl]nonyl}triphenylphosphonium iodide] | 10.7
CC[C@H]1OC(=O)[C@H](C)[C@@H](O[C@H]2C[C@@](C)(OC)[C@@H](O)[C@H](C)O2)[C@H](C)[C@@H](O[C@@H]2O[C@H](C)C[C@H](N(C)C)[C@H]2O)[C@](C)(O)C[C@@H](C)CN(CCCCCC(=O)N(C)CC[P+](c2ccccc2)(c2ccccc2)c2ccccc2)[C@H](C)[C@@H](O)[C@]1(C)O.[Br-] [Example 22] | 102.7
CC[C@H]1OC(=O)[C@H](C)[C@@H](O[C@H]2C[C@@](C)(OC)[C@@H](O)[C@H](C)O2)[C@H](C)[C@@H](O[C@@H]2O[C@H](C)C[C@H](N(C)C)[C@H]2O)[C@](C)(O)C[C@@H](C)CN(CCCCCCCC[P+](c2ccccc2)(c2ccccc2)c2ccccc2)[C@H](C)[C@@H](O)[C@]1(C)O.[I-] [Example 7, {8-[(2R,3S,4R,5R,8R,10R,11R,12S,13S,14R)-11-{[(2S,3R,4S,6R)-4-(dimethylamino)-3-hydroxy-6-methyloxan-2-yl]oxy}-2-ethyl-3,4,10-trihydroxy-13-{[(2R,4R,5S,6S)-5-hydroxy-4-methoxy-4,6-dimethyloxan-2-yl]oxy}-3,5,8,10,12,14-hexamethyl-15-oxo-1-oxa-6-azacyclopentadecan-6-yl]octyl}triphenylphosphonium iodide] | 23.3
CC[C@H]1OC(=O)[C@H](C)[C@@H](O)[C@H](C)[C@@H](O)[C@](C)(O)C[C@@H](C)CN(C(=O)CCCCCCCCCCCCC[P+](c2ccccc2)(c2ccccc2)c2ccccc2)[C@H](C)[C@@H](O)[C@]1(C)O [Example 16, {14-[(2R,3S,4R,5R,8R,10R,11R,12S,13S,14R)-2-ethyl-3,4,10,11,13-pentahydroxy-3,5,8,10,12,14-hexamethyl-15-oxo-1-oxa-6-azacyclopentadecan-6-yl]-14-oxotetradecyl}triphenylphosphonium hexafluorophosphate(V)] | 9.9
CC[C@H]1OC(=O)[C@H](C)[C@@H](O[C@H]2C[C@@](C)(OC)[C@@H](O)[C@H](C)O2)[C@H](C)[C@@H](O[C@@H]2O[C@H](C)C[C@H](N(C)C)[C@H]2O)[C@](C)(O)C[C@@H](C)CN(C(=O)CCCCCCCCCC[P+](c2ccccc2)(c2ccccc2)c2ccccc2)[C@H](C)[C@@H](O)[C@]1(C)O.[Cl-] [Example 25, {11-[(2R,3S,4R,5R,8R,10R,11R,12S,13S,14R)-11-{[(2S,3R,4S,6R)-4-(dimethylamino)-3-hydroxy-6-methyloxan-2-yl]oxy}-2-ethyl-3,4,10-trihydroxy-13-{[(2R,4R,5S,6S)-5-hydroxy-4-methoxy-4,6-dimethyloxan-2-yl]oxy}-3,5,8,10,12,14-hexamethyl-15-oxo-1-oxa-6-azacyclopentadecan-6-yl]-11-oxoundecyl}triphenylphosphonium chloride] | 4.4
CC[C@H]1OC(=O)[C@H](C)[C@@H](O[C@H]2C[C@@](C)(OC)[C@@H](O)[C@H](C)O2)[C@H](C)[C@@H](O[C@@H]2O[C@H](C)C[C@H](N(C)C)[C@H]2O)[C@](C)(O)C[C@@H](C)CN(C)[C@H](C)[C@@H](OC(=O)NCCCCCC[P+](c2ccccc2)(c2ccccc2)c2ccccc2)[C@]1(C)O.[Br-] [Example 17, (2R,3R,4R,5R,8R,10R,11R,12S,13S,14R)-11-{[(2S,3R,4S,6R)-4-(dimethylamino)-3-hydroxy-6-methyloxan-2-yl]oxy}-2-ethyl-3,10-dihydroxy-13-{[(2R,4R,5S,6S)-5-hydroxy-4-methoxy-4,6-dimethyloxan-2-yl]oxy}-3,5,6,8,10,12,14-heptamethyl-15-oxo-1-oxa-6-azacyclopentadecan-4-yl N-[6-(triphenylphosphoniumyl)hexyl]carbamate bromide] | 82.6
CC[C@H]1OC(=O)[C@H](C)[C@@H](O[C@H]2C[C@@](C)(OC)[C@@H](O)[C@H](C)O2)[C@H](C)[C@@H](O[C@@H]2O[C@H](C)C[C@H](N(C)C)[C@H]2O)[C@](C)(O)C[C@@H](C)CN(C(=O)CCCCCCCCC[P+](c2ccccc2)(c2ccccc2)c2ccccc2)[C@H](C)[C@@H](O)[C@]1(C)O [Example 2, {10-[(2R,3S,4R,5R,8R,10R,11R,12S,13S,14R)-11-{[(2S,3R,4S,6R)-4-(dimethylamino)-3-hydroxy-6-methyloxan-2-yl]oxy}-2-ethyl-3,4,10-trihydroxy-13-{[(2R,4R,5S,6S)-5-hydroxy-4-methoxy-4,6-dimethyloxan-2-yl]oxy}-3,5,8,10,12,14-hexamethyl-15-oxo-1-oxa-6-azacyclopentadecan-6-yl]-10-oxodecyl}triphenylphosphonium hexafluorophosphate(V)] | 13.4
CC[C@H]1OC(=O)[C@H](C)[C@@H](O)[C@H](C)[C@@H](O[C@@H]2O[C@H](C)C[C@H](N(C)C)[C@H]2O)[C@](C)(O)C[C@@H](C)CN(C(=O)CCCCCCCCCCCCC[P+](c2ccccc2)(c2ccccc2)c2ccccc2)[C@H](C)[C@@H](O)[C@]1(C)O [Example 21, {14-[(2R,3S,4R,5R,8R,10R,11R,12S,13S,14R)-11-{[(2S,3R,4S,6R)-4-(dimethylamino)-3-hydroxy-6-methyloxan-2-yl]oxy}-2-ethyl-3,4,10,13-tetrahydroxy-3,5,8,10,12,14-hexamethyl-15-oxo-1-oxa-6-azacyclopentadecan-6-yl]-14-oxotetradecyl}triphenylphosphonium hexafluorophosphate(V)] | 8
CC[C@H]1OC(=O)[C@H](C)[C@@H](O[C@H]2C[C@@](C)(OC)[C@@H](O)[C@H](C)O2)[C@H](C)[C@@H](O[C@@H]2O[C@H](C)C[C@H](N(C)C)[C@H]2O)[C@](C)(O)C[C@@H](C)CN(CCCCCCCCCC[PH](c2ccccc2)(c2ccccc2)c2ccccc2)[C@H](C)[C@@H](O)[C@]1(C)O [Example 14, {10-[(2R,3S,4R,5R,8R,10R,11R,12S,13S,14R)-11-{[(2S,3R,4S,6R)-4-(dimethylamino)-3-hydroxy-6-methyloxan-2-yl]oxy}-2-ethyl-3,4,10-trihydroxy-13-{[(2R,4R,5S,6S)-5-hydroxy-4-methoxy-4,6-dimethyloxan-2-yl]oxy}-3,5,8,10,12,14-hexamethyl-15-oxo-1-oxa-6-azacyclopentadecan-6-yl]decyl}triphenylphosphonium iodide] | 10.1
